Assay [1] relates to antibodies to HIV-1. Kind of assay: EIA of peptide-protein conjugates coated on polystyrene microtiter plates, human sera. The assay is classed as binding. As for the experimental part: (§1) The free peptides or peptide-protein conjugates of FIGS. 1-13 were initially screened for immunoreactivity by coating each well of polystyrene microtiter EIA plates (Costar, Cambridge, Mass., U.S.A.) with 0.2 ml amounts of concentrations of 5-50 micrograms/ml peptide in Tris buffer, 10 mM, pH 8.0, at 4° C. overnight. Peptides or peptide-protein conjugates showing immunoreactivity by EIA were then further diluted for coating to determine the minimal concentrations required that allowed maximal immunoreactivity with antibodies to HIV, and minimal nonspecific reactivity with normal sera. The EIA tests were performed as follows: The coating solution was removed from each well and the wells were blocked at 37° C. for 30 minutes with a solution of 50 mM phosphate, 100 mM NaCl, pH 7.4, 1% BSA, 0.5% gelatin. The wells were then aspirated dry with a microtiter plate washer and washed 3 times with a solution of 50 mM phosphate, 100 mM NaCl, 0.05% Tween 20, pH 7.4 (PBST). A 1:101 dilution (in PBST with 1% BSA, 1% NRS) of the primate serum to be tested was then added as 0.2 ml to each washed well and the plates were incubated at 37° C. for 30 minutes. The plates were then washed×3 with PBST, and 0.2 ml amounts of a 1:2000 dilution of goat anti-human (GAH) peroxidase enzyme conjugate (Organon Teknika, Cappel, Melvern, Pa., U.S.A.) that recognized human IgG, IgA, and IgM were added to each well, and the plates were incubated for 30 minutes at 37° C. The plates were then washed×3 with PBST and incubated with 0.2 ml/well substrate consisting of 0.1M citric acid pH 5.2, 0.1 mg/ml o-phenylene diamine, 0.01% H2 O2, at room temperature in the dark for 10 minutes. Reactions were stopped with 50 microliters of 4N H2 SO4, and the color development was quantitated in a Multiscan plate reader at A492. In each series of experiments positive and negative controls were included, and all tests were done in duplicate or quadruplicate. Most peptides and peptide conjugates were initially screened against a 1:101 dilution of pools of HIV positive or HIV negative sera, and the same serum pool was used to allow quantitative comparison of immunoreactivity of different free peptides or peptide-protein conjugates.
(§2) The peptides in FIGS. 1 and 5 were synthesized as described in Example 1 and conjugated to KLH or BSA as described in Example 2. These peptide-protein conjugates were coated to polystyrene microtiter plates all at a concentration 10 micrograms peptide/ml and evaluated for immunoreactivity as described in Example 3, using a 1:101 dilution of a pool of sera (HIV+/SIV+, respectively) containing antibodies to HIV-1 (FIG. 1) or to HIV-2 (FIG. 5), as well as pooled serum (HIV-/SIV-, respectively) containing no antibodies to HIV-1 or HIV-2. […] Since sera from patients infected with HIV-2 are relatively unavailable in the United States, the immunoreactivity of HIV-2 synthetic peptides was assessed using serum from macaques infected with SIV, obtained from the University of Washington Primate Center, Seattle, Wash., U.S.A. The AA sequence of SIV is nearly identical to HIV-2 in the region of the peptides synthesized (see Myers et al., Human Retroviruses and AIDS, 1988. A compilation of nucleic acid and amino acid sequences. Los Alamos National Laboratory, Los Alamos, N. Mex., 87545, USA).

For assay [2], the system named is antibodies to HIV-1. Briefly: Rapid HIV-1 EIA with peptide reagents immobilized on latex in rapid test device. The assay is classed as binding, human. The conditions noted are these: passive adsorption. As for the experimental part:
A test device for performing rapid tests in less than 15 minutes was prepared as illustrated in FIGS. 14 and 15. Referring to FIGS. 14 and 15, the device comprises a plastic slide 10 (approximately 1 inch wide by 3/16 inch thick by 31/4 inches long) having a plurality of funnel-like wells 12, each having a capacity of approximately 200 microliters, an upper inflow tract rim 14 diameter of approximately 9 mm and a lower outflow tract 16 diameter of approximately 2 mm. The undersurface of the outflow tract 16 is designed so as to provide a smooth even contact with a membrane filter 18 placed next to it in the apparatus. The membrane filter separates reactants passing through it by size, retaining those particles above a predetermined size, such as above 0.22 microns, or above 0.45 microns in size (depending upon the specific filter chosen), through other filters placed into the apparatus might separate by binding or affinity (i.e. nitrocellulose, glass). […]
The mixture was shaken gently a room temperature for 1 hour, and then washed 3 times by centrifugation at 9,000×g for 10 minutes, removal of supernate, and resuspension of the pellet in a 12-14 ml volume of deionized water, pH 4.5. […] It was determined that this stock solution of latex coated with peptide-BSA conjugate could be diluted 1:10-1:30 with latex diluent buffer for use in the rapid EIA described below. […]

The subject of the next assay is antibodies to SIV/HIV-2. Briefly: EIA of peptide-protein conjugates coated on polystyrene microtiter plates, macaque sera. The format is binding, rhesus macaque (Macaca mulatta).
Text: For all of the immunoassays employing human serum, the serum samples were obtained from the King County Health Department, Seattle, Wash., U.S.A., and each serum had been characterized as positive or negative with respect to antibodies to HIV-1, as determined by testing with the commercially licensed Genetic Systems and or DuPont EIA tests. Serum from rhesus macaque monkeys (Macaca mulatta) was obtained from the University of Washington, Seattle, Wash., U.S.A., and had been characterized by a SIV whole virus lysate EIA as either containing or not containing antibodies to SIV which is nearly identical in sequence to HIV-2 in the region of the peptide epitopes studied.
as §1, §2

A further assay relates to antibodies to HIV-2. Kind of assay: Rapid EIA with latex reagents to detect antibodies to HIV-2. The assay is classed as binding. How it is done: A 125 microliter volume of 10% latex was added to a 375 microliter volume of deionized water, and mixed with an equal volume (0.5 ml) of 1M carbodiimide, pH 4.5. The mixture was shaken gently a room temperature for 1 hour, and then washed 3 times by centrifugation at 9,000×g for 10 minutes, removal of supernate, and resuspension of the pellet in a 12-14 ml volume of deionized water, pH 4.5. The free peptides at 1 mg/ml concentration (500 micrograms/ml of each peptide 4S36 and 5S70), or the peptide-BSA conjugate of peptides 4S36 and 5S70 at 500 micrograms/ml were added to the final washed activated latex pellet (1 ml volume of peptide containing solution per 125 microliters original volume of latex). […] It was determined that this stock solution of latex coated with peptide-BSA conjugate could be diluted 1:10-1:30 with latex diluent buffer for use in the rapid EIA described below.
Serum specimens were diluted 1:8 for the rapid EIA in a serum diluent buffer consisting of 0.03M Tris, pH 8 containing 0.8% NaCl, 0.05% NaN3, 0.05% Triton x-100. […] The reaction was stopped after 3-4 minutes by adding a drop of 4N H2 SO4, and the test device could be retained as a permanent record of positive (blue-purple color) or negative (white membrane) until the results were recorded. […]

“Also recorded” adds a separate entry of the source. Where only a bound is given, the exact number is not on record here.

On to “VWGCSGKLICTTAVPGC [4S36, unnatural variant of HIV-1 gp41 peptide 2S09]”, for which the “reactivity with sera not containing antibodies to HIV-1 (FIGS. 10C, 11)” value in the assay on antibodies to HIV-1 [1] (BSA-SMCC conjugate, 85-87 negative human sera) was “acceptably low”. Besides, in the assay with antibodies to HIV-1 [1] (BSA-SMCC conjugate, 98 positive human sera (FIGS. 11A, 11B)), the “number of positive samples giving A492 less than 1.0” value was “none”. In addition, in the assay on antibodies to HIV-1 [1] (BSA-peptide conjugate, polystyrene plastic type 1 (low reactivity with normal human sera)), the “positive/negative ratios (FIG. 9)” value is given as not below 20. Further, the “performance of free peptide passively adsorbed to latex” value with antibodies to HIV-1 [2] is reported as “produced an immunoreactive reagent”.
On to ARLNSWGCAFRQVCHGC [2S25], for which the “immunoreactivity with SIV/HIV-2 antibodies (FIG. 5)” value in the assay with antibodies to SIV/HIV-2 (C-terminal BSA-SMCC conjugates, 10 micrograms peptide/ml coating, 1:101 dilution of pooled SIV+ / SIV- macaque sera) is “Significant immunoreactivity; also recorded: best immunoreactivity; also recorded: maximally immunoreactive”. Moreover, the “discrimination of positive from negative macaque sera (FIG. 7)” value with antibodies to SIV/HIV-2 (peptide-BSA conjugates) is reported as “most favorable performances”. The “discrimination of HIV-2+ from HIV-2- serum samples, rapid EIA” value in the assay with antibodies to HIV-2 is on record as “capable of discriminating”.
